Assays:
Assay type in all cases: functional, Homo sapiens
Set-up in all cases: dose or concentration left out as unconfirmed
Colon cancer organoid [1] = assay: Optimized Dual-Glo assay to identify co-culture induced drug vulnerabilities using donated chemical probes and chemogenomics kinase set in O14 CRC organoid and F14 CAF mono and co-culture. […] Cell viability is reported both mono and co-culture models.
Colon cancer organoid [2] = assay: Optimized Dual-Glo assay to identify co-culture induced drug vulnerabilities using donated chemical probes and chemogenomics kinase set in O20 CRC organoid and F20 CAF mono and co-culture. […] Cell viability is reported both mono and co-culture models.
Colon cancer organoid [3] = assay: Optimized Dual-Glo assay to identify co-culture induced drug vulnerabilities using donated chemical probes and chemogenomics kinase set in O06 CRC organoid and F06 CAF mono and co-culture. […] Cell viability is reported both mono and co-culture models.
[4] = Culture type Co-Culture, Transduced with Lucferase2-P2A-EGFP lentivirus
[5] = Culture type Co-Culture, Transduced with Renilla-dsRed lentivirus
[6] = Culture type Mono-Culture, Transduced with Lucferase2-P2A-EGFP lentivirus
[7] = Culture type Mono-Culture, Transduced with Renilla-dsRed lentivirus

Row | Structure (SMILES) | Cell Viability (Colon cancer organoid [1]; [4]) [%] | Cell Viability (Colon cancer organoid [1]; [5]) [%] | Cell Viability (Colon cancer organoid [1]; [6]) [%] | Cell Viability (Colon cancer organoid [1]; [7]) [%] | Cell Viability (Colon cancer organoid [2]; [4]) [%] | Cell Viability (Colon cancer organoid [2]; [5]) [%] | Cell Viability (Colon cancer organoid [2]; [6]) [%] | Cell Viability (Colon cancer organoid [2]; [7]) [%] | Cell Viability (Colon cancer organoid [3]; [4]) [%] | Cell Viability (Colon cancer organoid [3]; [5]) [%] | Cell Viability (Colon cancer organoid [3]; [6]) [%] | Cell Viability (Colon cancer organoid [3]; [7]) [%]
1 | CC#CC(=O)N1CCC[C@H]1c1nc(-c2ccc(C(=O)Nc3ccccn3)cc2)c2c(N)nccn12 [ACALABRUTINIB] | 70.2708 | 100.717 | 59.6403 | 100.701 | 96.1769 | 99.9657 | 56.8336 | 71.1135 | 96.562 | 83.4698 | 98.0139 | 99.6421
2 | C[C@@H](NC(=O)Nc1cc2[nH]ncc2c(CO)n1)c1ccccc1 [ERKi] | 33.887 | 108.528 | 11.5857 | 66.9878 | 50.0756 | 135.339 | 64.2382 | 68.0141 | 117.766 | 104.277 | 23.2555 | 96.7542
3 | Nc1ccc(C(=O)Nc2cccc(-c3nc(N4CCOCC4)c4oc5ncccc5c4n3)c2)cn1 | 67.7704 | 105.191 | 42.3601 | 61.5192 | 142.389 | 75.1771 | 60.1963 | 81.7819 | 78.745 | 81.5262 | 28.4733 | 93.3288
4 | COc1ccc(Cn2ccc3ccc(C(=O)NO)cc32)cc1 | 71.3405 | 118.85 | 119.497 | 102.466 | 176.611 | 111.53 | 111.23 | 102.771 | 111.578 | 129.424 | 126.919 | 118.855
5 | CCCOc1ccn2c(C(C)=O)cc(-c3ccccc3S(C)(=O)=O)c2c1 | 117.77 | 112.498 | 105.54 | 97.3869 | 148.391 | 117.742 | 112.445 | 111.137 | 121.922 | 129.269 | 172.982 | 130.382
6 | CO[C@@H](C)c1c(Nc2ccc([C@H](N(C)C(=O)C3CCS(=O)(=O)CC3)C(F)(F)F)cc2)cnc2cc(Cl)nn12 [NVS-MALT1] | 62.6088 | 105.477 | 102.315 | 101.932 | 87.8486 | 98.697 | 70.7423 | 82.2292 | 54.3511 | 83.5282 | 80.0936 | 98.6896
7 | Cn1cc(CNCC2CCN(c3ncc(C(=O)NO)cn3)CC2)c2ccccc21 [QUISINOSTAT] | 0.9193 | 88.4975 | 0.7655 | 72.0368 | 1.342 | 37.1921 | 2.078 | 3.907 | 1.095 | 190.694 | 6.147 | 20.2291
8 | Cn1cc(Cl)c2c(Oc3c(F)cc(Nc4cc(Cl)nc(N)n4)cc3F)ccnc21 [BAY-4900] | 109.877 | 85.9396 | 108.551 | 92.3665 | 91.184 | 109.2 | 84.5951 | 91.9324 | 121.536 | 149.241 | 59.0633 | 101.592
9 | Cc1ccc(-c2ccc3c(ccc4sc5c(c43)NC[C@@H](C)NC5=O)n2)cn1 | 126.339 | 65.0441 | 182.208 | 70.7861 | 152.499 | 70.7863 | 154.638 | 67.5844 | 100.355 | 85.371 | 114.604 | 88.0896
10 | Cc1c(NC(=O)COc2ccc(Cl)cc2C(=O)c2cc(F)cc(C(F)(F)F)c2)ccc(C(=O)O)c1F [BI 2540] | 79.1363 | 91.7704 | 120.435 | 101.06 | 66.158 | 145.555 | 86.1051 | 111.497 | 131.143 | 97.0984 | 110.069 | 102.946
11 | O=C(Nc1cccnn1)N1CCC(=Cc2cccc(Oc3ccc(C(F)(F)F)cn3)c2)CC1 | 80.0964 | 115.877 | 79.6396 | 77.8588 | 75.4997 | 114.419 | 100.525 | 97.4491 | 113.161 | 193.053 | 80.1285 | 90.1757
12 | Cc1c(C(=O)O)cc(-c2ccc(C3CCNCC3)cc2)c2ccc(-c3ccc(C(F)(F)F)cc3)cc12.Cl | 89.0162 | 119.102 | 89.8992 | 99.4723 | 115.549 | 99.1911 | 103.532 | 103.975 | 69.2582 | 93.9723 | 78.1885 | 87.9203
13 | CNC(=O)c1cc(C(=O)N[C@H]2[C@@H]3COC[C@@H]32)cc2c1O[C@H](CF)[C@H]2c1ccccc1 [GSK973] | 93.0111 | 167.902 | 105.165 | 155.71 | 97.8368 | 135.509 | 77.6772 | 131.324 | 110.942 | 170.924 | 57.9314 | 146.399
14 | CCn1c(-c2nc3cc(C(=O)N4CCCC(N)C4)ccc3n2C)cc2ccccc21.Cl (stereo not drawn) | 85.5466 | 126.887 | 120.87 | 100.943 | 132.709 | 136.72 | 106.473 | 96.2054 | 115.054 | 117.733 | 118.281 | 112.415

Reference: ChEMBL document CHEMBL5674860, “Optimized Dual-Glo Assay to identify co-culture-induced drug vulnerabilities in 3D CRC models” (2024)
